Assay results as given in article PMC4673163, “Natural paniceins from mediterranean sponge inhibit the multidrug resistance activity of Patched and increase chemotherapy efficiency on melanoma cells” (Oncotarget, 2015).

Biological target: T1, human Patched (Patched 1; hPatched-MAP) (Homo sapiens, UniProt Q13635)
T1 construct: gene PTCH1; human Patched with MAP tag from pYEP-hPatched-MAP, expressed in Saccharomyces cerevisiae K699; whole yeast, not purified
T1 sequence (Q13635 1-1447): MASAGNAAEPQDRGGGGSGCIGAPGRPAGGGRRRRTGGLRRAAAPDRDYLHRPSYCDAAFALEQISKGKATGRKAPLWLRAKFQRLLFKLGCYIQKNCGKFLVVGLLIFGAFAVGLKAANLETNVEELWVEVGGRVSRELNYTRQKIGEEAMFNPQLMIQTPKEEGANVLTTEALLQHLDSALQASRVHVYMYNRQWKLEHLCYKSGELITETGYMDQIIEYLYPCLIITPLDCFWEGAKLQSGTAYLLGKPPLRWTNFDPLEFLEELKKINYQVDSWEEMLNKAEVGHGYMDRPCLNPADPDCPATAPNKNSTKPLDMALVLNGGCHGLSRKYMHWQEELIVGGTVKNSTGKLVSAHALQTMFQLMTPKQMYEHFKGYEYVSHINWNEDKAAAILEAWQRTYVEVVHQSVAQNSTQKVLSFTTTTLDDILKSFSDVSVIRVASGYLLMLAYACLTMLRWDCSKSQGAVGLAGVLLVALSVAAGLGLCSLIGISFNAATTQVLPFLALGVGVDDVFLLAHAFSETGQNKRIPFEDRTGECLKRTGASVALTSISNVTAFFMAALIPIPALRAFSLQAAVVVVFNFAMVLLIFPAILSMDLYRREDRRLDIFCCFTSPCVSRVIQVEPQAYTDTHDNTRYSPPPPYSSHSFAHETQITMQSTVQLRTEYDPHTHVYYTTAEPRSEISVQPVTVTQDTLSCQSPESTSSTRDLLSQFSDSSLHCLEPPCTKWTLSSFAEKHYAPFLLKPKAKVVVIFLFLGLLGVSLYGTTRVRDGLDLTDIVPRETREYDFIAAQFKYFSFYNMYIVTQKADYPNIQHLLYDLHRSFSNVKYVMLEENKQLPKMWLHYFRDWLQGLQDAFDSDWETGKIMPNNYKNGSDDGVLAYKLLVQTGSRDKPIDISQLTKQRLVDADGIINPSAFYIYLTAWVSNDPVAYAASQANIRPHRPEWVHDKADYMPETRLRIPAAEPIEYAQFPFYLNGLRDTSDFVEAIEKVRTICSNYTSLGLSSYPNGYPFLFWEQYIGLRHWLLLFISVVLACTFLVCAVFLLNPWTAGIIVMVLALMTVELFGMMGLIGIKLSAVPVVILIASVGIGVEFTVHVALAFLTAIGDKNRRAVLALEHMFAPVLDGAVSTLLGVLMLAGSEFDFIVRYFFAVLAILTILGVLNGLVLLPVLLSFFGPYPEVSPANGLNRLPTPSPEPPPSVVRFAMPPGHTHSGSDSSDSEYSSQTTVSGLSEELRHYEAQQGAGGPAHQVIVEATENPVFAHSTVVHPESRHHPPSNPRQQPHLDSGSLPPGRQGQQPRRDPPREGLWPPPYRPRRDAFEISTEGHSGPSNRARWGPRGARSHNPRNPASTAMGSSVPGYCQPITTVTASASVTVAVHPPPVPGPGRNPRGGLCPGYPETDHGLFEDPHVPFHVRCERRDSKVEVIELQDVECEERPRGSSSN
Experiment: doxorubicin efflux from de-energized yeast, fluorescence microscopy
Format: cell-based
Conditions: read-out: % inhibition of dxr efflux at 10 μM

Which inhibition at 10 µM does the source give for COc1cc(C)c(CC/C(C)=C/Cc2cc(O)ccc2O)c(C)c1C [compound 1, panicein A hydroquinone] here?
Its inhibition at 10 µM is about 40%.
